One assay concerns A. baumannii ATCC 19606. Nature of the assay: Sensitization to rifampin: well diffusion growth inhibition on LB plates containing rifampin. The assay is classed as cell-based, Acinetobacter baumannii. To be noted: 4 μg of compound. (Agar diffusion results depend on both activity and mobility in agar.)
The subject of assay [1] is Ps. aeruginosa ATCC 27853. The assay is described as above. Type of assay: cell-based, Pseudomonas aeruginosa. To be noted: 4 μg of compound.
The test system of a further assay is E. coli IH3080. The assay is described as above. To be noted: 4 μg of compound. The assay is classed as cell-based, Escherichia coli. The protocol:
(§1) From an overnight-grown culture of IH3080 on LB agar, a suspension of approx. 10^8 cells/ml was prepared in 0.9% NaCl. Aliquots of this suspension were then pipetted on the agar plates and the plates were gently shaken to spread the suspension evenly on the entire surface of the plate. Thereafter, the unabsorbed part of the suspension was removed by using a Pasteur pipette. After the surface had dried, small wells (diameter, 2 mm) were drilled on the plates (five wells per plate) by using a sterile sharp-edged narrow metal tube, single-use pipette tip, and vacuum suction. […] Controls included 0.9% NaCl solution without the compound to be tested. The plates were then incubated for 18 h at 37° C. whereafter the diameters of growth inhibition zones around each well were measured; the diameter of the well itself was not reduced. Finally, the diameters were converted to surface areas of growth inhibition (in square mm).

A further assay has as its system E. coli IH3080 (K1:O18). Kind of assay: Well diffusion growth inhibition on LB agar plates (direct antibacterial activity). The assay is classed as cell-based, Escherichia coli. The protocol: Peptides synthesized in Example 1, all carrying at least two (2) but not more than three (3) positive charges, were studied for their ability to inhibit the growth of E. coli. This was tested employing LB agar (LB Agar Lennox, Difco, BD, Sparks, Md., U.S.A) plates. The indicator organism E. coli IH3080 (K1:O18) was an encapsulated strain originally isolated from a neonate suffering from meningitis (Vaara et al. 1984) and obtained from National Public Health Institute, Helsinki, Finland.
as §1

Assay [2] concerns Pseudomonas aeruginosa ATCC 27853. The assay is described as above. The assay is classed as cell-based. The note with it: Ps. aeruginosa ATCC 27853. The protocol: (§2) From an overnight-grown culture of IH3080 on LB agar, a suspension of approx. 10^8 cells/ml was prepared in 0.9% NaCl. Aliquots of this suspension were then pipetted on the agar plates and the plates were gently shaken to spread the suspension evenly on the entire surface of the plate. Thereafter, the unabsorbed part of the suspension was removed by using a Pasteur pipette. After the surface had dried, small wells (diameter, 2 mm) were drilled on the plates (five wells per plate) by using a sterile sharp-edged narrow metal tube, single-use pipette tip, and vacuum suction. Samples (4 μl and 10 μl) of the peptide solution in 0.9% NaCl (at concentrations of 1 μg/ml and 0.1 μg/ml) were then pipetted to the wells and the sample fluids were allowed to absorb. Controls included 0.9% NaCl solution without the compound to be tested. The plates were then incubated for 18 h at 37° C. whereafter the diameters of growth inhibition zones around each well were measured; the diameter of the well itself was not reduced. Finally, the diameters were converted to surface areas of growth inhibition (in square mm).
(§3) Direct antibacterial activity of twelve NAB compounds against Acinetobacter baumannii ATCC 19606 and Pseudomonas aeruginosa ATCC 27853 was tested by using the susceptibility determination method described in Example 2. Five compounds (NAB7062, NAB734, NAB737, NAB739, and NAB740) had notable activity against A. baumannii. […] The antibacterial activity of NAB739 and NAB740 were as strong as or even stronger than that of polymyxin B.

Assay [3] relates to Acinetobacter baumannii ATCC 19606. The description is as above. The assay is classed as cell-based. The note with it: A. baumannii ATCC 19606. The protocol: as §2, §3

The source of these data is patent US9067974B2, “Polymyxin derivatives and uses thereof” (priority 2006, dated 2015).

With “DA-Thr-Abu-cy[Dab-Dab-DPhe-Leu-Dab-Dab-Thr-] [NAB 7062]”, the “Antibacterial activity in the presence of rifampin (growth inhibition area around a well)” value with A. baumannii ATCC 19606 (rifampin 0 μg/ml) is reported as 13 square millimeters; with A. baumannii ATCC 19606 (rifampin 0.1 μg/ml) it was 50 square millimeters; in the assay on A. baumannii ATCC 19606 (rifampin 0.3 μg/ml), 95 square millimeters; in assay [1] (rifampin 0 μg/ml), 0 square millimeters; in assay [1] (rifampin 0.1 μg/ml), 0 square millimeters; in assay [1] (rifampin 0.3 μg/ml), 7 square millimeters. The “Antibacterial activity in the presence of rifampin (growth inhibition area around a well)” value came out at 50 square millimeters in the assay with E. coli IH3080 (rifampin 0 μg/ml), 104 square millimeters with E. coli IH3080 (rifampin 0.1 μg/ml) and 104 square millimeters with E. coli IH3080 (rifampin 1.0 μg/ml). Also, the “Antibacterial activity (growth inhibition area around a well)” value amounted to 50 square millimeters with E. coli IH3080 (K1:O18) (4 μg of compound per well); 99 square millimeters with E. coli IH3080 (K1:O18) (10 μg of compound per well); 0 square millimeters in assay [2] (4 μg per well); 0 square millimeters in assay [2] (10 μg per well); 13 square millimeters in assay [3] (4 μg per well); 38 square millimeters in assay [3] (10 μg per well).

For “DA-Thr-DSer-cy[Dab-Dab-DPhe-Leu-Dab-Dab-Thr-] [NAB 740]”, the “Antibacterial activity in the presence of rifampin (growth inhibition area around a well)” value with A. baumannii ATCC 19606 (rifampin 0 μg/ml) is 133 square millimeters; with A. baumannii ATCC 19606 (rifampin 0.1 μg/ml), 154 square millimeters; in the assay with A. baumannii ATCC 19606 (rifampin 0.3 μg/ml), 154 square millimeters; in assay [1] (rifampin 0 μg/ml) it was 64 square millimeters; in assay [1] (rifampin 0.1 μg/ml) it was 64 square millimeters; in assay [1] (rifampin 0.3 μg/ml) it was 64 square millimeters. In addition, the “Antibacterial activity in the presence of rifampin (growth inhibition area around a well)” value with E. coli IH3080 (rifampin 0 μg/ml), in the assay with E. coli IH3080 (rifampin 0.1 μg/ml) and in the assay with E. coli IH3080 (rifampin 1.0 μg/ml) was 95 square millimeters in each case. Also, the “Antibacterial activity (growth inhibition area around a well)” value in the assay with E. coli IH3080 (K1:O18) (4 μg of compound per well) came to 95 square millimeters; with E. coli IH3080 (K1:O18) (10 μg of compound per well) it was 133 square millimeters; in assay [2] (4 μg per well), 64 square millimeters; in assay [2] (10 μg per well), 133 square millimeters; in assay [3] (4 μg per well) it was 133 square millimeters; in assay [3] (10 μg per well), 201 square millimeters.

Take “DA-cy[Dab-Dab-DPhe-Leu-Dab-Dab-Thr-] [NAB 736]”: the “Antibacterial activity in the presence of rifampin (growth inhibition area around a well)” value in the assay on A. baumannii ATCC 19606 (rifampin 0 μg/ml) came out at 0 square millimeters; with A. baumannii ATCC 19606 (rifampin 0.1 μg/ml), 95 square millimeters; in the assay with A. baumannii ATCC 19606 (rifampin 0.3 μg/ml), 154 square millimeters; in assay [1] (rifampin 0 μg/ml), 38 square millimeters; in assay [1] (rifampin 0.1 μg/ml) it was 38 square millimeters; in assay [1] (rifampin 0.3 μg/ml), 38 square millimeters. In addition, the figures for the “Antibacterial activity in the presence of rifampin (growth inhibition area around a well)” value with E. coli IH3080 (rifampin 0 μg/ml), in the assay on E. coli IH3080 (rifampin 0.1 μg/ml) and in the assay on E. coli IH3080 (rifampin 1.0 μg/ml) were 0 square millimeters, 113 square millimeters and 133 square millimeters, respectively. Moreover, the “Antibacterial activity (growth inhibition area around a well)” value in the assay with E. coli IH3080 (K1:O18) (4 μg of compound per well) is recorded as 0 square millimeters; with E. coli IH3080 (K1:O18) (10 μg of compound per well), 0 square millimeters; in assay [2] (4 μg per well) it was 38 square millimeters; in assay [2] (10 μg per well), 79 square millimeters; in assay [3] (4 μg per well), 0 square millimeters; in assay [3] (10 μg per well), 0 square millimeters.

As for “OA-Thr-Abu-cy[Dab-Dab-DLeu-Leu-Dab-Dab-Thr-] [NAB 718]”, the “Antibacterial activity in the presence of rifampin (growth inhibition area around a well)” value in the assay with A. baumannii ATCC 19606 (rifampin 0 μg/ml) was found to be 0 square millimeters; in the assay with A. baumannii ATCC 19606 (rifampin 0.1 μg/ml) it was 0 square millimeters; with A. baumannii ATCC 19606 (rifampin 0.3 μg/ml) it was 38 square millimeters; in assay [1] (rifampin 0 μg/ml), 0 square millimeters; in assay [1] (rifampin 0.1 μg/ml) it was 0 square millimeters; in assay [1] (rifampin 0.3 μg/ml), 0 square millimeters. For the same substance, the “Antibacterial activity in the presence of rifampin (growth inhibition area around a well)” value worked out at 0 square millimeters in the assay with E. coli IH3080 (rifampin 0 μg/ml), 13 square millimeters with E. coli IH3080 (rifampin 0.1 μg/ml) and 133 square millimeters in the assay on E. coli IH3080 (rifampin 1.0 μg/ml). Further, the “Antibacterial activity (growth inhibition area around a well)” value (in the assay on E. coli IH3080 (K1:O18) (4 μg of compound per well); in the assay with E. coli IH3080 (K1:O18) (10 μg of compound per well); in assay [2] (4 μg per well); in assay [2] (10 μg per well); in assay [3] (4 μg per well); in assay [3] (10 μg per well)) was 0 square millimeters in each case.

As to “OA-Thr-Abu-cy[Dab-Dab-DPhe-Leu-Dab-Dab-Leu-] [NAB 719]”, the “Antibacterial activity in the presence of rifampin (growth inhibition area around a well)” value in the assay on A. baumannii ATCC 19606 (rifampin 0 μg/ml) is recorded as 0 square millimeters; in the assay on A. baumannii ATCC 19606 (rifampin 0.1 μg/ml), 154 square millimeters; with A. baumannii ATCC 19606 (rifampin 0.3 μg/ml) it was 133 square millimeters; in assay [1] (rifampin 0 μg/ml), 0 square millimeters; in assay [1] (rifampin 0.1 μg/ml) it was 0 square millimeters; in assay [1] (rifampin 0.3 μg/ml), 7 square millimeters. For the same substance, the “Antibacterial activity in the presence of rifampin (growth inhibition area around a well)” value with E. coli IH3080 (rifampin 0 μg/ml) is on record as 7 square millimeters; in the assay with E. coli IH3080 (rifampin 0.1 μg/ml), 79 square millimeters; in the assay on E. coli IH3080 (rifampin 1.0 μg/ml), 95 square millimeters. For the same substance, the “Antibacterial activity (growth inhibition area around a well)” value in the assay with E. coli IH3080 (K1:O18) (4 μg of compound per well) is 7 square millimeters; with E. coli IH3080 (K1:O18) (10 μg of compound per well), 50 square millimeters; in assay [2] (4 μg per well), 0 square millimeters; in assay [2] (10 μg per well), 0 square millimeters; in assay [3] (4 μg per well), 0 square millimeters; in assay [3] (10 μg per well) it was 0 square millimeters.
